How the values were obtained:
[1] = test system: U2OS cells; assay: Apoptosis (sub-G1) by FACS in U2OS cells; format: cell-based; details: U2OS cells, expression vectors 48 h; relative to wild-type E2F-1; n=2
Method: Whether arginine methylation influences E2F-1-dependent apoptosis was investigated by comparing the ability of wild-type E2F-1 to the KK and KKK mutants to induce cells with a sub-G1 DNA content (Stevens et al 2003). […] U2OS cells were transfected with expression vectors encoding wild-type E2F-1, KK and KKK as indicated for 48 h and analysed by FACS as described. The graph represents the relative change in sub-G1 populations compared to the empty vector control treatment; n=2.
The graph (i) represents the relative number of sub-G I cells (compared to the control treatment) in the indicated conditions; and (ii) the level of PRMT5 and E2F-1; n=3.
PRMT5 (P) or control (C) non-targeting siRNA (25 nM) was transfected into HCT116 p53+/+ (i), HCT116 p53−/− (ii) or U2OS (iii) cells and the cells were harvested 72 h post-transfection and analysed by FACS. The graph represents the actual number of sub-G1 cells in the indicated conditions, and the immunoblot the level of PRMT5 and actin control; n=3.
PRMT5 (P), E2F-1 (E) or control (C) non-targeting siRNA was transfected into U2OS cells and harvested 72 h post-transfection and analysed by FACS as described.
Cells were transfected with the indicated expression vectors together with pBB14-GFP (for 48 h) to monitor transfection efficiency or siRNA (for 48 h or 72 h) with or without treatment of the DNA damage agent for the last 16 h. Then, cells were fixed and stained with propidium iodide and analyzed by Flow Cytometry.

[2] = molecular target: T1, PRMT5 (Homo sapiens, UniProt O14744); assay: GST binding assay with U2OS cell lysate, PRMT5 immunoblot; design: The indicated GST proteins were incubated with U2OS cell lysate; endogenous in cells; host or cells: U2OS; details: GST-E2F-1 proteins incubated with U2OS cell lysate
Method: It was then assessed whether E2F-1 could interact with PRMT5 and thereafter the role of each R residue in mediating the interaction. […] The indicated GST proteins were incubated with U2OS cell lysate, and bound proteins immunoblotted using anti-GST (for input GST), DP-1 or PRMT5 antibodies. Binding to DP-1, the major heterodimeric partner for E2F-1 (Stevens and La Thangue 2003), served as a control since it bound equally to each of the E2F-1 proteins.
GST or GST tagged proteins (10 μg each) were incubated with agarose beads and damaged or undamaged U2OS cell lysates for 3 h. Beads were then washed with TNN buffer 3 times. SDS sample buffer was added to beads and samples were analysed by immunoblotting.

[3] = test system: p73-luciferase or cyclinE-luciferase; assay: Reporter assay with E2F-responsive promoters; format: cell-based; details: U2OS cells, 48 h, equivalent protein level; compared to wild-type E2F-1; n=3
Method: To further explore the role of arginine methylation in the transcription properties of E2F-1, wild-type E2F-1 was compared with the KK and KKK mutants in a reporter-based transfection assay, using E2F-responsive promoters derived from E2F target genes. The assay was performed under conditions in which each mutant protein was expressed at an equivalent level to wild-type E2F-1 (FIG. 4aii and bii), thus ruling out any difference in activity that could be attributed to protein levels. […] FIGS. 4a and b show the transcription properties of wild-type E2F-1, KK and KKK mutants. U2OS cells were transfected with expression vectors encoding WT or mutant E2F-1 protein, together with p73-luciferase (A) or cyclinE-luciferase (B) for 48 h as indicated, and pCMV-βgal to monitor transfection efficiency. Relative luciferase activity (luciferase/βgal) is shown together with expression level of ectopic proteins; n=3. […] PRMT5 (P) or control (C) non-targeting siRNA was transfected into U2OS cells together with p73-luciferase (i) or cyclinE-luciferase (ii) for 48 h, together with pCMV-βgal to monitor transfection efficiency. Relative luciferase activity is shown together with expression level of the ectopic proteins.
Cells were transfected with expression vectors (1 μg) encoding WT or the mutant E2F-1 proteins as indicated with E2F responsive luciferase reporters, namely p73-luciferase or cyclinE-luciferase, together with pCMV-βgal to monitor transfection efficiency. Cells were harvested, lysed 48 h post-transfection and luciferase activity measured as previously described (Janson et al 2008).

[4] = molecular target: T1, PRMT5; assay: Co-immunoprecipitation of ectopic E2F-1 with PRMT5 in U2OS cells; format: cell-based; design: The indicated GST proteins were incubated with U2OS cell lysate; endogenous in cells; host or cells: U2OS; details: expression vector transfected into U2OS cells, HA11 IP
Text: To establish whether E2F-1 was able to bind to PRMT5 in cells, the interaction between ectopic wild-type E2F-1 or KKK with PRMT5 was studied. […] Either a wild-type E2F-1 expression vector or a KKK expression vector was transfected into U2OS cells, and HA11 antibody was used for immunoprecipitation (IP) followed by immunoblotting with HA11 (E2F-1), PRMT5 or DP-1 as indicated. The level of input (In) protein is indicated. […] In contrast, binding to DP-1 was equivalent for both wild-type E2F-1 and KKK. […] Further, the RGRGR motif is necessary for the interaction, which also encompasses the site of PRMT5 methylation.
Cells were either left untransfected or transfected with expression vectors as indicated. At 48 h post transfection, cells were harvested in TNN buffer (50 mM Tris-HC1 [pH 7.4], 150 mM NaCl, 5 mM EDTA, 0.5% Ipegal, 50 mM NaF, 0.2 mM sodium orthovanadate and protease inhibitor cocktail (1 mM PMSF, leupeptin [1 μg/ml], aprotinin [1 μg/m1], and pepstatin A [1 μg/ml])) and rotated at 4° C. for 30 min to 1 h. The cell lysate was then homogenised, centrifuged at 11000 rpm for 10 min to remove cell debris and the supernatant collected. All lysates were normalized for protein concentration and, where appropriate, for transfection by β-galactosidase activity. […] Enhanced chemi-luminescence (Pierce Biotechnology, Rockford, Ill.) was used to visualize antibody binding.

T1 sequence (O14744 whole entry): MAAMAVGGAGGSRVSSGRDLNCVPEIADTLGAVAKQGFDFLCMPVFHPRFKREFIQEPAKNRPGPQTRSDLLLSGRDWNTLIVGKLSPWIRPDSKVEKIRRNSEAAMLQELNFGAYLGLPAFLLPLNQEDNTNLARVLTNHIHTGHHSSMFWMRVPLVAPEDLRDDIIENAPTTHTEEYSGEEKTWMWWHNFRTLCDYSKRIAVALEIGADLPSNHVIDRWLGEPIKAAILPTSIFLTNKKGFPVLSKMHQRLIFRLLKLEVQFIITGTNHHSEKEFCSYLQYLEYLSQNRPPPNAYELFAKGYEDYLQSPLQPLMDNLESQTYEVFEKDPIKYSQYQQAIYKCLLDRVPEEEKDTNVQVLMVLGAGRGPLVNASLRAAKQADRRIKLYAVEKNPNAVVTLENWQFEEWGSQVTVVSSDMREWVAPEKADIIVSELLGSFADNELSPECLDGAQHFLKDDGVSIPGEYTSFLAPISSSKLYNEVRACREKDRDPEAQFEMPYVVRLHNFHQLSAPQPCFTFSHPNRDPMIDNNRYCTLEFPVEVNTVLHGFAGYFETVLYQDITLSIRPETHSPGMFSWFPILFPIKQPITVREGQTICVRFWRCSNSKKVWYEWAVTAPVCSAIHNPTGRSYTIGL

binding to PRMT5 [2]: completely devoid of PRMT5 binding
transcriptional activity (relative luciferase activity) [3]: increased transcriptional activity
co-immunoprecipitation with PRMT5 [4]: not apparent
Substance: KKK: methylation-defective E2F-1 protein containing the mutations R109K, R111K and R113K
apoptosis (sub-G1 population) [1]: increased levels of apoptosis
